In patent US20210115104A1, “AMYLIN ANALOGUES” (Zealand Pharma A/S, priority 2015, published 2021):
*1 amine or outer side, *2 acyl side, *3 side chain or, on linkers, in order; H or OH if unused. Where a SMILES comes first, the peptide text is derived from it. Bridges are numbered along the chain shown (N, C = ends). [ ]: non-standard residue; d: D form. The star is where a group is joined. C20 diacid = O=C(O)CCCCCCCCCCCCCCCCCCC(=O)*; γGlu = O=C(O)[C@H](CCC(=O)[*:2])N[*:1]; Hyp = O=C(O)[C@@H]1C[C@@H](O)CN1; NMeI = CC[C@H](C)[C@H](NC)C(=O)O; Aad = N[C@@H](CCCC(=O)O)C(=O)O; Sar = CNCC(=O)O

Legend:
[1] = molecular target: T1, human calcitonin receptor (hCTR2) (Homo sapiens, UniProt P30988); experiment: hCTR2 cAMP assay (AlphaScreen) in COS7 cells; format: cell-based; details: cAMP induction, COS7 cells expressing hCTR2; Table 1; read-out: hCTR2 EC50
T1 construct: expressed in transfected cells
T1 sequence (P30988 25-474): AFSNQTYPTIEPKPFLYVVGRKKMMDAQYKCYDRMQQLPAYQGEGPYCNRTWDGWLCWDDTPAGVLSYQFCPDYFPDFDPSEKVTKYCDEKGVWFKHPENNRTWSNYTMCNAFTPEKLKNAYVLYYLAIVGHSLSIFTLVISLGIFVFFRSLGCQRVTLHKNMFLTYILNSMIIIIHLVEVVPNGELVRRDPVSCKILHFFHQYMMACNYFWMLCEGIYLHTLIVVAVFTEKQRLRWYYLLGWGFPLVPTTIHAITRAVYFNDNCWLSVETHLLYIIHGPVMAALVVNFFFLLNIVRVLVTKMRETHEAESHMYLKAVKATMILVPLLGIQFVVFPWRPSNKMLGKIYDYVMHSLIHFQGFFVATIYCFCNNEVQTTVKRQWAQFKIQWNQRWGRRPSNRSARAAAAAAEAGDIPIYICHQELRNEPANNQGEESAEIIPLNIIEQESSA
Method in brief: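 Stable hCTR2 clone in RAMP-naïve COS7 cells stimulated 15 min at 37 °C with increasing peptide concentrations in Tyrode buffer pH 7.4 containing IBMX and 0.1% casein. cAMP in lysates measured by AlphaScreen; EC50 from 4-parameter logistic fit.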

[2] = molecular target: T2, human amylin receptor 3 (hAMYR3), hCTR2 co-expressed with hRAMP3 (Homo sapiens, UniProt O60896+P30988); experiment: hAMYR3 cAMP assay (AlphaScreen) in COS7 cells; format: cell-based; details: cAMP induction, COS7 cells expressing hAMYR3; Table 1; read-out: hAMYR3 EC50
T2 construct: expressed in transfected cells
T2 sequence (P30988 25-474): T1 sequence (P30988 25-474)
T2 sequence (O60896 24-148 partner): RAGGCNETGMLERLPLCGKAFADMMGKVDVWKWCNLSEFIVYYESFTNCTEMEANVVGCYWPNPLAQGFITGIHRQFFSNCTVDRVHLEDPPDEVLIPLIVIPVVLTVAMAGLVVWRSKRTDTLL
Method in brief: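 Stable COS7 clone co-expressing hCTR2 and hRAMP3 was exposed to increasing peptide concentrations in Tyrode buffer (pH 7.4) with 100 µM IBMX and 0.1% casein for 15 min at 37 °C. Lysate cAMP was measured by AlphaScreen; EC50 came from 4-parameter logistic fitting.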

[3] = Assessment of physical stability (Thioflavin T fibrillation); format: physicochemical; design: key: FND = fibrillation not detected; FD = fibrillation detected; details: 1 mg/ml, 40° C., ThT; for Fibrillation pH 4.0 (Ac): 50 mM acetate buffer pH 4.0, 96 hours; for Fibrillation pH 7.0 (His): 50 mM histidine buffer pH 7.0, 96 hours; for Fibrillation pH 7.0 (Phos.): 50 mM phosphate buffer pH 7.0, 96 hours
Method in brief: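 1 mg/ml peptide with 40 μM ThT in 50 mM phosphate pH 7.0, 50 mM histidine pH 7.0 or 50 mM acetate pH 4.0, in triplicate. Fluorescence read every 10 min after 300 s agitation over 96 h at 40 °C. Lag-time (h) is the intersection of linear fits to stable and growth phases.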

[4] = Assessment of chemical stability (RP-HPLC normalized purity); format: physicochemical; details: for Normalized purity after 7 days, 40° C., pH 4: pH 4, 0.2 mg/ml; for Normalized purity after 7 days, 40° C., pH 4 / Normalized purity after 7 days, 40° C., pH 6 / Normalized purity after 7 days, 40° C., pH 7.5 / Normalized purity after 7 days, 40° C., pH 9: Table 1; for Normalized purity after 7 days, 40° C., pH 6: pH 6, 0.2 mg/ml; for Normalized purity after 7 days, 40° C., pH 7.5: pH 7.5, 0.2 mg/ml; for Normalized purity after 7 days, 40° C., pH 9: pH 9, 0.2 mg/ml
Method in brief: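 Peptides at 0.2 mg/ml in water adjusted to pH 4, 6, 7.5 or 9, incubated at 40° C for 7 days. Main-peak area-% by RP-HPLC (C8 ammonium formate or C18 TFA gradient, UV 220 nm), normalized to T=0 as 100.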

SMILES	EC50 [1] [nM]	EC50 [2] [nM]	Fibrillation pH 4.0 (Ac) [3]	Fibrillation pH 7.0 (His) [3]	Fibrillation pH 7.0 (Phos.) [3]	Normalized purity after 7 days, 40° C., pH 4 [4]	Normalized purity after 7 days, 40° C., pH 6 [4]	Normalized purity after 7 days, 40° C., pH 7.5 [4]	Normalized purity after 7 days, 40° C., pH 9 [4]	Normalized purity pH 4 (Table 5) ([4]; pH 4, repeat of Example 6 for pairs with/without Asn-Asn at 21-22)	Normalized purity pH 6 (Table 5) ([4]; pH 6, repeat of Example 6 for pairs with/without Asn-Asn at 21-22)	Normalized purity pH 7.5 (Table 5) ([4]; pH 7.5, repeat of Example 6 for pairs with/without Asn-Asn at 21-22)	Normalized purity pH 9 (Table 5) ([4]; pH 9, repeat of Example 6 for pairs with/without Asn-Asn at 21-22)
CC[C@H](C)[C@@H](C(=O)N[C@@H](CC(C)C)C(=O)N[C@@H](CO)C(=O)N[C@@H](CO)C(=O)N[C@H](C(=O)N[C@@H](CCC(=O)O)C(=O)N[C@H](C(=O)NCC(=O)N[C@@H](CO)C(=O)NCC(=O)N[C@H](C(=O)N1C[C@H](O)C[C@H]1C(N)=O)[C@@H](C)O)C(C)C)[C@@H](C)O)N(C)C(=O)[C@H](C)NC(=O)CN(C)C(=O)[C@H](Cc1ccccc1)NC(=O)[C@H](CCCNC(=N)N)NC(=O)[C@H](CCC(N)=O)NC(=O)[C@H](CC(C)C)NC(=O)[C@H](Cc1ccccc1)NC(=O)[C@H](Cc1c[nH]cn1)NC(=O)[C@H](C)NC(=O)[C@H](CC(C)C)NC(=O)[C@H](CCCNC(=N)N)NC(=O)[C@H](CCC(N)=O)NC(=O)[C@@H](NC(=O)[C@H](C)NC(=O)[C@@H]1CSSC[C@H](NC(=O)[C@H](CCCNC(=N)N)NC(=O)CC[C@H](NC(=O)CCCCCCCCCCCCCCCCCCC(=O)O)C(=O)O)C(=O)N[C@@H](CC(N)=O)C(=O)N[C@@H]([C@@H](C)O)C(=O)N[C@@H](C)C(=O)N[C@@H]([C@@H](C)O)C(=O)N1)[C@@H](C)O [Compound 79, [19CD]-isoGlu-R-C( )-NTAT-C( )-ATQRLAHFLQRF-Gly(Me)-A-Ile(Me)-LSSTEVGSGT-Hyp-NH2] ({C20 diacid-γGlu}-RCNTATCATQRLAHFLQRF[Sar]A[NMeI]LSSTEVGSGT[Hyp]-NH2; disulfide 2-7)	0.12	0.23	FND	FD	FD	A (A = >90%)	A (A = >90%)	B (B = 70-90%)	B (B = 70-90%)	–	–	–	–
CC[C@H](C)[C@@H](C(=O)N[C@@H](CC(C)C)C(=O)N[C@@H](CO)C(=O)N[C@@H](CO)C(=O)N[C@H](C(=O)N[C@@H](CCC(=O)O)C(=O)N[C@H](C(=O)NCC(=O)N[C@@H](CO)C(=O)N[C@@H](CC(N)=O)C(=O)N[C@H](C(=O)N1C[C@H](O)C[C@H]1C(N)=O)[C@@H](C)O)C(C)C)[C@@H](C)O)N(C)C(=O)[C@H](C)NC(=O)CN(C)C(=O)[C@H](Cc1ccccc1)NC(=O)[C@H](CO)NC(=O)[C@H](CO)NC(=O)[C@H](CCCNC(=N)N)NC(=O)[C@H](CCC(N)=O)NC(=O)[C@H](CC(C)C)NC(=O)[C@H](Cc1ccccc1)NC(=O)[C@H](CCCC(=O)O)NC(=O)[C@H](C)NC(=O)[C@H](CC(C)C)NC(=O)[C@H](CCCNC(=N)N)NC(=O)[C@H](CC(=O)O)NC(=O)[C@@H](NC(=O)[C@H](C)NC(=O)[C@@H]1CSSC[C@H](NC(=O)[C@H](CCCNC(=N)N)NC(=O)CC[C@H](NC(=O)CCCCCCCCCCCCCCCCCCC(=O)O)C(=O)O)C(=O)N[C@@H](CCC(N)=O)C(=O)N[C@@H]([C@@H](C)O)C(=O)N[C@@H](C)C(=O)N[C@@H]([C@@H](C)O)C(=O)N1)[C@@H](C)O [Compound 89, [19CD]-isoGlu-R-C( )-QTAT-C( )-ATDRLA-Aad-FLQRSSF-Gly(Me)-A-Ile(Me)-LSSTEVGSNT-Hyp-NH2] ({C20 diacid-γGlu}-RCQTATCATDRLA[Aad]FLQRSSF[Sar]A[NMeI]LSSTEVGSNT[Hyp]-NH2; disulfide 2-7)	0.16	0.2	FND	FND	FND	A (A = >90%)	A (A = >90%)	A (A = >90%)	B (B = 70-90%)	A (A = >90%)	A (A = >90%)	A (A = >90%)	A (A = >90%)
